Assay results reported in patent publication US20140213513A1 (Sanofi, priority 2012, published 2014).
*1 amine or outer side, *2 acyl side, *3 side chain or, on linkers, in order; H or OH if unused. Where a SMILES comes first, the peptide text is derived from it. Side-chain parts run from the residue outwards. [ ]: non-standard residue; d: D form. The star is where a group is joined. γGlu = O=C(O)[C@H](CCC(=O)[*:2])N[*:1]; Stearoyl = CCCCCCCCCCCCCCCCCC(=O)*; Palmitoyl = CCCCCCCCCCCCCCCC(=O)*; Aib = CC(C)(N)C(=O)O

How the values were obtained:
Assay type in all cases: cell-based
Details in all cases: Table 7; cAMP formation
[1] = target: T1, human GIP receptor (hGIP R) (Homo sapiens, UniProt P48546); assay: cAMP response of HEK-293 cells stably expressing human GIP receptor (HTRF)
T1 construct: expressed in transfected cells
T1 sequence (P48546 22-466): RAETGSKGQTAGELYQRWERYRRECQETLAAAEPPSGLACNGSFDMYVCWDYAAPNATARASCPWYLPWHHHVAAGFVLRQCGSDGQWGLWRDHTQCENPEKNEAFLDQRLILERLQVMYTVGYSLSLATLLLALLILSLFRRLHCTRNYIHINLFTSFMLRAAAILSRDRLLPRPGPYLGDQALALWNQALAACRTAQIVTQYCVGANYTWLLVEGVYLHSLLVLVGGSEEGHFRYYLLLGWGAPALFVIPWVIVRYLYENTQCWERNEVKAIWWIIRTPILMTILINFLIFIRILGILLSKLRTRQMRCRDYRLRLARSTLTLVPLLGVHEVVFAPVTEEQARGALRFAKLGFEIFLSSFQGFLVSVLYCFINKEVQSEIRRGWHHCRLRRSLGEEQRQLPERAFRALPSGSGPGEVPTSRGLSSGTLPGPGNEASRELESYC
Outline: (§1)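 HEK-293 cells stably expressing the receptor were resuspended at 400000 cells/ml in HBSS/20 mM HEPES/0.1% BSA buffer with 2 mM IBMX. Cells were stimulated with compound for 30 min at room temperature. Intracellular cAMP was measured by HTRF.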

[2] = target: T2, human GLP-1 receptor (hGLP-1 R) (Homo sapiens, UniProt P43220); assay: cAMP response of HEK-293 cells stably expressing human GLP-1 receptor (HTRF)
T2 construct: expressed in transfected cells
Outline: as §1

[3] = target: T3, human glucagon receptor (hGLUC R) (Homo sapiens, UniProt P47871); assay: cAMP response of HEK-293 cells stably expressing human glucagon receptor (HTRF)
T3 construct: expressed in transfected cells
Outline: as §1

T3 sequence (P47871 26-477): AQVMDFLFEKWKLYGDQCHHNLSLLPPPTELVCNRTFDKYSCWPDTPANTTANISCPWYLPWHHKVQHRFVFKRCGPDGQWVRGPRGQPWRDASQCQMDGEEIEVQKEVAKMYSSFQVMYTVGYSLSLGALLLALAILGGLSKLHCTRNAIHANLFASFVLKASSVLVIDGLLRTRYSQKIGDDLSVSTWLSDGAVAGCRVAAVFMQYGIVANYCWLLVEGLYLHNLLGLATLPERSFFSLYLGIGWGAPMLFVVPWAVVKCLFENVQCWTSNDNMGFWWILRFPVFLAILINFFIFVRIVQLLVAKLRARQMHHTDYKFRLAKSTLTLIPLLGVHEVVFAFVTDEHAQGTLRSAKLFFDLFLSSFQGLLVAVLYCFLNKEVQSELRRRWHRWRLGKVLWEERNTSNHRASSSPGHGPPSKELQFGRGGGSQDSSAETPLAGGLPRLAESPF
T2 sequence (P43220 24-463): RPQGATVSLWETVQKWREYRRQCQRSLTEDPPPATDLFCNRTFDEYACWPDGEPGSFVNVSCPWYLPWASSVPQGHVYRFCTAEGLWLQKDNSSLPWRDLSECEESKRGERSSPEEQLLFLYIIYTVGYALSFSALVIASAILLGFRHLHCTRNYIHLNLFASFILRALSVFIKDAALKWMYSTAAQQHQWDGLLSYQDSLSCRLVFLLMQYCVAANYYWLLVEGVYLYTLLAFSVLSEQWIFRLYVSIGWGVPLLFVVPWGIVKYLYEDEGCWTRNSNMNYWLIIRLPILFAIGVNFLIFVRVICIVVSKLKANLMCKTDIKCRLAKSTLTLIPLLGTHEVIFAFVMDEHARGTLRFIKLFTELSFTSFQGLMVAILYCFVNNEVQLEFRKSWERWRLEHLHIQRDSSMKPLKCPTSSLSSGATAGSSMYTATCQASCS

SMILES: CCCCCCCCCCCCCCCC(=O)NCCCC[C@H](NC(=O)[C@H](CCC(N)=O)NC(=O)[C@@H](NC(=O)[C@H](CO)NC(=O)[C@H](CC(C)C)NC(=O)[C@H](CC(=O)O)NC(=O)[C@H](CO)NC(=O)[C@@H](NC(=O)[C@H](Cc1ccccc1)NC(=O)[C@@H](NC(=O)CNC(=O)[C@H](CCC(N)=O)NC(=O)C(C)(C)NC(=O)[C@@H](N)Cc1ccc(O)cc1)[C@@H](C)O)[C@@H](C)O)[C@@H](C)CC)C(=O)N[C@@H](CCC(=O)O)C(=O)N[C@@H](CCC(N)=O)C(=O)N[C@@H](CCCNC(=N)N)C(=O)N[C@@H](C)C(=O)N[C@@H](C)C(=O)NC(C)(C)C(=O)N[C@@H](CCC(=O)O)C(=O)N[C@@H](Cc1ccccc1)C(=O)N[C@H](C(=O)N[C@@H](CCC(=O)O)C(=O)N[C@@H](Cc1c[nH]c2ccccc12)C(=O)N[C@@H](CC(C)C)C(=O)N[C@@H](CCCCN)C(=O)N[C@@H](CC(N)=O)C(=O)N[C@H](C(=O)NCC(=O)N1CCC[C@H]1C(=O)N[C@@H](CO)C(=O)N[C@@H](CO)C(=O)NCC(=O)N[C@@H](C)C(=O)N1CCC[C@H]1C(=O)N1CCC[C@H]1C(=O)N1CCC[C@H]1C(=O)N[C@@H](CO)C(N)=O)[C@@H](C)O)[C@@H](C)CC [SEQ ID NO: 21, Y-Aib-Q-G-T-F-T-S-D-L-S-I-Q-K(x53)-E-Q-R-A-A-Aib-E-F-I-E-W-L-K-N-T-G-P-S-S-G-A-P-P-P-S-NH2] (H-Y[Aib]QGTFTSDLSIQK(Palmitoyl)EQRAA[Aib]EFIEWLKNTGPSSGAPPPS-NH2)
- EC50 [1]: 0.189 nM
- EC50 [2]: 0.037 nM
- EC50 [3]: 0.674 nM

SMILES: CCCCCCCCCCCCCCCCCC(=O)N[C@@H](CCC(=O)NCCCC[C@H](NC(=O)[C@H](CCC(N)=O)NC(=O)[C@@H](NC(=O)[C@H](CO)NC(=O)[C@H](CC(C)C)NC(=O)[C@H](CC(=O)O)NC(=O)[C@H](CO)NC(=O)[C@@H](NC(=O)[C@H](Cc1ccccc1)NC(=O)[C@@H](NC(=O)CNC(=O)[C@H](CCC(=O)O)NC(=O)C(C)(C)NC(=O)[C@@H](N)Cc1ccc(O)cc1)[C@@H](C)O)[C@@H](C)O)[C@@H](C)CC)C(=O)N[C@@H](CCC(=O)O)C(=O)N[C@@H](CCC(=O)O)C(=O)N[C@@H](CCC(=O)O)C(=O)N[C@@H](C)C(=O)N[C@H](C(=O)N[C@@H](CCCCN)C(=O)N[C@@H](CC(C)C)C(=O)N[C@@H](Cc1ccccc1)C(=O)N[C@H](C(=O)N[C@@H](CCC(=O)O)C(=O)N[C@@H](Cc1c[nH]c2ccccc12)C(=O)N[C@@H](CC(C)C)C(=O)N[C@@H](CCCCN)C(=O)N[C@@H](C)C(=O)NCC(=O)NCC(=O)N1CCC[C@H]1C(=O)N[C@@H](CO)C(=O)N[C@@H](CO)C(=O)NCC(=O)N[C@@H](C)C(=O)N1CCC[C@H]1C(=O)N1CCC[C@H]1C(=O)N1CCC[C@H]1C(=O)N[C@@H](CO)C(N)=O)[C@@H](C)CC)C(C)C)C(=O)O [SEQ ID NO: 62, Y-Aib-E-G-T-F-T-S-D-L-S-I-Q-K(yE-x70)-EEEAVKLFIEWLKAGGPSSGAPPPS-NH2] (H-Y[Aib]EGTFTSDLSIQK([γGlu-Stearoyl])EEEAVKLFIEWLKAGGPSSGAPPPS-NH2)
- EC50 [1]: 0.0067 nM
- EC50 [2]: 0.0076 nM
- EC50 [3]: > 1000 nM

SMILES: CCCCCCCCCCCCCCCC(=O)N[C@@H](CCC(=O)NCCCC[C@H](NC(=O)[C@H](CCC(N)=O)NC(=O)[C@@H](NC(=O)[C@H](CO)NC(=O)[C@H](CC(C)C)NC(=O)[C@H](CC(=O)O)NC(=O)[C@H](CO)NC(=O)[C@@H](NC(=O)[C@H](Cc1ccccc1)NC(=O)[C@@H](NC(=O)CNC(=O)[C@H](CCC(N)=O)NC(=O)C(C)(C)NC(=O)[C@@H](N)Cc1ccc(O)cc1)[C@@H](C)O)[C@@H](C)O)[C@@H](C)CC)C(=O)N[C@@H](CCC(=O)O)C(=O)N[C@@H](CCCCN)C(=O)N[C@@H](Cc1ccc(O)cc1)C(=O)N[C@@H](C)C(=O)N[C@@H](C)C(=O)NC(C)(C)C(=O)N[C@@H](CCC(=O)O)C(=O)N[C@@H](Cc1ccccc1)C(=O)N[C@H](C(=O)N[C@@H](CCC(=O)O)C(=O)N[C@@H](Cc1c[nH]c2ccccc12)C(=O)N[C@@H](CC(C)C)C(=O)N[C@@H](CCCCN)C(=O)N[C@@H](CC(N)=O)C(=O)N[C@H](C(=O)NCC(=O)N1CCC[C@H]1C(=O)N[C@@H](CO)C(=O)N[C@@H](CO)C(=O)NCC(=O)N[C@@H](C)C(=O)N1CCC[C@H]1C(=O)N1CCC[C@H]1C(=O)N1CCC[C@H]1C(=O)N[C@@H](CO)C(N)=O)[C@@H](C)O)[C@@H](C)CC)C(=O)O [SEQ ID NO: 10, Y-Aib-Q-G-T-F-T-S-D-L-S-I-Q-K(yE-x53)-E-K-Y-A-A-Aib-E-F-I-E-W-L-K-N-T-G-P-S-S-G-A-P-P-P-S-NH2] (H-Y[Aib]QGTFTSDLSIQK([γGlu-Palmitoyl])EKYAA[Aib]EFIEWLKNTGPSSGAPPPS-NH2)
- EC50 [1]: 0.0144 nM
- EC50 [2]: 0.0052 nM
- EC50 [3]: 0.667 nM

SMILES: CCCCCCCCCCCCCCCC(=O)N[C@@H](CCC(=O)NCCCC[C@H](NC(=O)[C@H](CCC(N)=O)NC(=O)[C@@H](NC(=O)[C@H](CO)NC(=O)[C@H](CC(C)C)NC(=O)[C@H](CC(=O)O)NC(=O)[C@H](CO)NC(=O)[C@@H](NC(=O)[C@H](Cc1ccccc1)NC(=O)[C@@H](NC(=O)CNC(=O)[C@H](CCC(N)=O)NC(=O)C(C)(C)NC(=O)[C@@H](N)Cc1ccc(O)cc1)[C@@H](C)O)[C@@H](C)O)[C@@H](C)CC)C(=O)N[C@@H](CCC(=O)O)C(=O)N[C@@H](CCCCN)C(=O)N[C@@H](CC(C)C)C(=O)N[C@@H](C)C(=O)N[C@@H](C)C(=O)NC(C)(C)C(=O)N[C@@H](CCC(=O)O)C(=O)N[C@@H](Cc1ccccc1)C(=O)N[C@H](C(=O)N[C@@H](CCC(=O)O)C(=O)N[C@@H](Cc1c[nH]c2ccccc12)C(=O)N[C@@H](CC(C)C)C(=O)N[C@@H](CCCCN)C(=O)N[C@@H](CC(N)=O)C(=O)N[C@H](C(=O)NCC(=O)N1CCC[C@H]1C(=O)N[C@@H](CO)C(=O)N[C@@H](CO)C(=O)NCC(=O)N[C@@H](C)C(=O)N1CCC[C@H]1C(=O)N1CCC[C@H]1C(=O)N1CCC[C@H]1C(=O)N[C@@H](CO)C(N)=O)[C@@H](C)O)[C@@H](C)CC)C(=O)O [SEQ ID NO: 8, Y-Aib-Q-G-T-F-T-S-D-L-S-I-Q-K(yE-x53)-E-K-L-A-A-Aib-E-F-I-E-W-L-K-N-T-G-P-S-S-G-A-P-P-P-S-NH2] (H-Y[Aib]QGTFTSDLSIQK([γGlu-Palmitoyl])EKLAA[Aib]EFIEWLKNTGPSSGAPPPS-NH2)
- EC50 [1]: 0.026 nM
- EC50 [2]: 0.0087 nM
- EC50 [3]: 0.803 nM

SMILES: CCCCCCCCCCCCCCCCCC(=O)N[C@@H](CCC(=O)NCCCC[C@H](NC(=O)[C@H](CCC(N)=O)NC(=O)[C@H](CCCCN)NC(=O)[C@H](CO)NC(=O)[C@H](CC(C)C)NC(=O)[C@H](CC(=O)O)NC(=O)[C@H](CO)NC(=O)[C@@H](NC(=O)[C@H](Cc1ccccc1)NC(=O)[C@@H](NC(=O)CNC(=O)[C@H](CCC(N)=O)NC(=O)C(C)(C)NC(=O)[C@@H](N)Cc1ccc(O)cc1)[C@@H](C)O)[C@@H](C)O)C(=O)N[C@@H](CC(=O)O)C(=O)N[C@@H](CCC(=O)O)C(=O)N[C@@H](CCC(=O)O)C(=O)N[C@@H](C)C(=O)N[C@@H](C)C(=O)N[C@@H](CCCNC(=N)N)C(=O)N[C@@H](CC(C)C)C(=O)N[C@@H](Cc1ccccc1)C(=O)N[C@H](C(=O)N[C@@H](CCC(=O)O)C(=O)N[C@@H](Cc1c[nH]c2ccccc12)C(=O)N[C@@H](CC(C)C)C(=O)N[C@@H](CCCCN)C(=O)N[C@@H](C)C(=O)NCC(=O)NCC(=O)N1CCC[C@H]1C(=O)N[C@@H](CO)C(=O)N[C@@H](CO)C(=O)NCC(=O)N[C@@H](C)C(=O)N1CCC[C@H]1C(=O)N1CCC[C@H]1C(=O)N1CCC[C@H]1C(=O)N[C@@H](CO)C(N)=O)[C@@H](C)CC)C(=O)O [SEQ ID NO: 60, Y-Aib-Q-G-T-F-T-S-D-L-S-K-Q-K(yE-x70)-DEEAARLFIEWLKAGGPSSGAPPPS-NH2] (H-Y[Aib]QGTFTSDLSKQK([γGlu-Stearoyl])DEEAARLFIEWLKAGGPSSGAPPPS-NH2)
- EC50 [1]: 0.0168 nM
- EC50 [2]: 0.0053 nM
- EC50 [3]: 0.0091 nM

SMILES: CCCCCCCCCCCCCCCC(=O)N[C@@H](CCC(=O)NCCCC[C@H](NC(=O)[C@H](CCC(N)=O)NC(=O)[C@H](CCCCN)NC(=O)[C@H](CO)NC(=O)[C@H](CC(C)C)NC(=O)[C@H](CC(=O)O)NC(=O)[C@H](CO)NC(=O)[C@@H](NC(=O)[C@H](Cc1ccccc1)NC(=O)[C@@H](NC(=O)CNC(=O)[C@H](Cc1c[nH]cn1)NC(=O)C(C)(C)NC(=O)[C@@H](N)Cc1ccc(O)cc1)[C@@H](C)O)[C@@H](C)O)C(=O)N[C@@H](CCC(=O)O)C(=O)N[C@@H](CCCCN)C(=O)N[C@@H](CCCNC(=N)N)C(=O)N[C@@H](C)C(=O)N[C@@H](C)C(=O)NC(C)(C)C(=O)N[C@@H](CCC(=O)O)C(=O)N[C@@H](Cc1ccccc1)C(=O)N[C@H](C(=O)N[C@@H](CCC(=O)O)C(=O)N[C@@H](Cc1c[nH]c2ccccc12)C(=O)N[C@@H](CC(C)C)C(=O)N[C@@H](CCCCN)C(=O)N[C@@H](CC(N)=O)C(=O)N[C@H](C(=O)NCC(=O)N1CCC[C@H]1C(=O)N[C@@H](CO)C(=O)N[C@@H](CO)C(=O)NCC(=O)N[C@@H](C)C(=O)N1CCC[C@H]1C(=O)N1CCC[C@H]1C(=O)N1CCC[C@H]1C(=O)N[C@@H](CO)C(N)=O)[C@@H](C)O)[C@@H](C)CC)C(=O)O [SEQ ID NO: 28, Y-Aib-H-G-T-F-T-S-D-L-S-K-Q-K(yE-x53)-E-K-R-A-A-Aib-E-F-I-E-W-L-K-N-T-G-P-S-S-G-A-P-P-P-S-NH2] (H-Y[Aib]HGTFTSDLSKQK([γGlu-Palmitoyl])EKRAA[Aib]EFIEWLKNTGPSSGAPPPS-NH2)
- EC50 [1]: 0.0368 nM
- EC50 [2]: 0.0583 nM
- EC50 [3]: 0.0048 nM
